According to PubChem BioAssay AID330 (DTP/NCI, 2004):
“And” between values parts separate entries of the source, which are not always exact repeats. Equal entries are not always repeated. Inconclusive results and toxic doses are left out.

Test system: P388 leukemia ip, CD2F1 mice, survival T/C
Experiment: NCI In Vivo Anticancer Drug Screen. Data for tumor model P388 Leukemia (intraperitoneal) in CD2F1 (CDF1) mice
Conditions: endpoint: median survival time, higher = longer survival
Method in brief: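 Mice carrying the transplanted tumor received test compound or vehicle. Survival was recorded in each group, and the value is the treated-group measurement divided by that of the vehicle-treated control group.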

[1] = dose: 50.0 mg/kg/injection, schedule: Q01DX009 (ip), vehicle: water
[2] = dose: 100.0 mg/kg/injection, schedule: Q04DX002 (ip), vehicle: saline with Tween-80
[3] = dose: 200.0 mg/kg/injection, schedule: Q04DX002 (ip), vehicle: saline with Tween-80
[4] = dose: 400.0 mg/kg/injection, schedule: Q04DX002 (ip), vehicle: saline with Tween-80
[5] = dose: 50.0 mg/kg/injection, schedule: Q01DX009 (ip), vehicle: saline with Tween-80
[6] = dose: 100.0 mg/kg/injection, schedule: Q01DX009 (ip), vehicle: saline with Tween-80
[7] = dose: 200.0 mg/kg/injection, schedule: Q01DX009 (ip), vehicle: saline with Tween-80
[8] = dose: 50.0 mg/kg/injection, schedule: Q01DX005 (ip), vehicle: Klucel (hydroxypropylcellulose) (HPC)
[9] = dose: 100.0 mg/kg/injection, schedule: Q01DX005 (ip), vehicle: Klucel (hydroxypropylcellulose) (HPC)
[10] = dose: 200.0 mg/kg/injection, schedule: Q01DX005 (ip), vehicle: Klucel (hydroxypropylcellulose) (HPC)
[11] = dose: 25.0 mg/kg/injection, schedule: Q04DX003 (ip), vehicle: saline with Tween-80
[12] = dose: 100.0 mg/kg/injection, schedule: Q04DX003 (ip), vehicle: saline with Tween-80
[13] = dose: 25.0 mg/kg/injection, schedule: Q01DX001 (ip), vehicle: Klucel (hydroxypropylcellulose) (HPC)
[14] = dose: 60.0 mg/kg/injection, schedule: Q01DX005 (ip), vehicle: Klucel (hydroxypropylcellulose) (HPC)
[15] = dose: 120.0 mg/kg/injection, schedule: Q01DX005 (ip), vehicle: Klucel (hydroxypropylcellulose) (HPC)

COc1cc2c(cc1OC)-c1cc(C)c3cc(OC)c(OC)cc3[n+]1CC2
T/C [1]: 111 % of control | T/C (dose: 100.0 mg/kg/injection, schedule: Q01DX009 (ip), vehicle: water): 110 % of control | T/C (dose: 200.0 mg/kg/injection, schedule: Q01DX009 (ip), vehicle: water): 117 % of control

CCOC(=O)C1C(=O)N2C(=O)C(NC(C)=O)=C(O)C2C1c1ccccc1 (centres undefined)
T/C [2]: 100 % of control | T/C [3]: 99 % of control | T/C [4]: 100 % of control

Cc1[nH]c(=O)[nH]c(=O)c1C(=O)O
T/C [5]: 100 % of control | T/C [6]: 105 % of control | T/C [7]: 99 % of control

CC1CC(=O)Nc2cc(C(F)(F)F)ccc2N1 (centres undefined)
T/C [8]: 95 % of control | T/C [9]: 99 % of control | T/C [10]: 93 % of control

C=C1CC2(CC(C)CCC2C(C)C)OC1=O (centres undefined)
T/C (dose: 100.0 mg/kg/injection, schedule: Q01DX001 (ip), vehicle: saline): 97 % of control | T/C (dose: 200.0 mg/kg/injection, schedule: Q01DX001 (ip), vehicle: saline): 100 % of control | T/C (dose: 400.0 mg/kg/injection, schedule: Q01DX001 (ip), vehicle: saline): 111 % of control

Nc1ncnc2c1c(C(=O)O)cn2C1OC(CO)C(O)C1O (centres undefined)
T/C [11]: 120 % of control | T/C [5]: 118 % of control | T/C [6]: 86 % of control

CC1=NN(C(=O)c2ccncc2)C(=O)C1N=Nc1ccc(S(N)(=O)=O)cc1 (centres undefined)
T/C [5]: 94 % of control | T/C [6]: 95 % of control | T/C [7]: 92 % of control

Nc1[nH]c(=S)[nH]c(=O)c1N=O
T/C (dose: 6.25 mg/kg/injection, schedule: Q01DX009 (ip), vehicle: saline): 100 % of control and 113 % of control | T/C (dose: 12.5 mg/kg/injection, schedule: Q01DX009 (ip), vehicle: saline): 98 % of control | T/C (dose: 25.0 mg/kg/injection, schedule: Q01DX009 (ip), vehicle: saline): 100 % of control and 117 % of control

NCc1nnn(Cc2ccccc2)c1N
T/C [5]: 90 % of control | T/C [6]: 92 % of control | T/C [7]: 92 % of control

CC1CC[N-]CC1.CC1CC[N-]CC1.CS(C)=O.[Cl][Rh]([Cl])[Cl]
T/C (dose: 3.0 mg/kg/injection, schedule: Q01DX009 (ip), vehicle: saline with Tween-80): 104 % of control | T/C (dose: 3.0 mg/kg/injection, schedule: Q04DX003 (ip), vehicle: saline with Tween-80): 104 % of control | T/C (dose: 6.0 mg/kg/injection, schedule: Q01DX009 (ip), vehicle: saline with Tween-80): 95 % of control | T/C (dose: 6.0 mg/kg/injection, schedule: Q04DX003 (ip), vehicle: saline with Tween-80): 100 % of control | T/C (dose: 12.0 mg/kg/injection, schedule: Q01DX009 (ip), vehicle: saline with Tween-80): 95 % of control | T/C (dose: 12.0 mg/kg/injection, schedule: Q04DX003 (ip), vehicle: saline with Tween-80): 109 % of control

CC[C@@]1(C(N)=O)CC2C=CC1C2 (some centres undefined)
T/C [8]: 94 % of control | T/C [9]: 90 % of control | T/C [10]: 96 % of control

CNc1nc(N)nc(Nc2ccc(I)cc2)c1N=O
T/C [12]: 109 % of control | T/C (dose: 200.0 mg/kg/injection, schedule: Q04DX003 (ip), vehicle: saline with Tween-80): 109 % of control | T/C (dose: 400.0 mg/kg/injection, schedule: Q04DX003 (ip), vehicle: saline with Tween-80): 109 % of control

COC(=O)C(C)Oc1ccc(OC#N)cc1 (centres undefined)
T/C (dose: 60.0 mg/kg/injection, schedule: Q01DX005 (ip), vehicle: saline with Tween-80): 102 % of control | T/C (dose: 120.0 mg/kg/injection, schedule: Q01DX005 (ip), vehicle: saline with Tween-80): 101 % of control | T/C (dose: 240.0 mg/kg/injection, schedule: Q01DX005 (ip), vehicle: saline with Tween-80): 93 % of control

Cc1ccc2c(c1)C(C)(C)C(O)CC2(C)C (centres undefined)
T/C [8]: 98 % of control | T/C [9]: 106 % of control | T/C [10]: 109 % of control

O=C(O)CNc1ccccc1.[Cu+2]
T/C (dose: 6.25 mg/kg/injection, schedule: Q01DX001 (ip), vehicle: Klucel (hydroxypropylcellulose) (HPC)): 98 % of control | T/C (dose: 12.5 mg/kg/injection, schedule: Q01DX001 (ip), vehicle: Klucel (hydroxypropylcellulose) (HPC)): 98 % of control | T/C [13]: 101 % of control and 112 % of control

CC(=O)[C@]1(O)Cc2c(O)c3c(c(O)c2C(OC2CC(N=[N+]=[N-])C(O)[C@@H](CN=[N+]=[N-])O2)C1)C(=O)c1c(O)cccc1C3=O (some centres undefined)
T/C (dose: 3.13 mg/kg/injection, schedule: Q04DX003 (ip), vehicle: saline with Tween-80): 93 % of control | T/C (dose: 6.25 mg/kg/injection, schedule: Q04DX003 (ip), vehicle: saline with Tween-80): 93 % of control | T/C (dose: 12.5 mg/kg/injection, schedule: Q04DX003 (ip), vehicle: saline with Tween-80): 96 % of control | T/C [11]: 96 % of control | T/C (dose: 50.0 mg/kg/injection, schedule: Q04DX003 (ip), vehicle: saline with Tween-80): 91 % of control | T/C [12]: 105 % of control

COc1cccc2c1C(=O)c1c(O)c3c(c(O)c1C2=O)C[C@@](O)(C(C)=O)C[C@@H]3OC1CC(N(Cc2ccccc2)Cc2ccccc2)C(O)C(C)O1 (some centres undefined)
T/C (dose: 0.78 mg/kg/injection, schedule: Q01DX009 (ip), vehicle: water): 105 % of control | T/C (dose: 1.56 mg/kg/injection, schedule: Q01DX009 (ip), vehicle: water): 114 % of control | T/C (dose: 6.25 mg/kg/injection, schedule: Q01DX009 (ip), vehicle: water): 156 % of control | T/C (dose: 12.5 mg/kg/injection, schedule: Q01DX009 (ip), vehicle: water): 189 % of control and 221 % of control | T/C (dose: 13.0 mg/kg/injection, schedule: Q04DX003 (ip), vehicle: water): 158 % of control | T/C (dose: 21.6 mg/kg/injection, schedule: Q04DX003 (ip), vehicle: water): 180 % of control | T/C (dose: 25.0 mg/kg/injection, schedule: Q01DX009 (ip), vehicle: water): 247 % of control and 271 % of control | T/C [1]: 92 % of control | T/C (dose: 60.0 mg/kg/injection, schedule: Q04DX003 (ip), vehicle: water): 94 % of control

Clc1ccc(/C=N/Nc2nnc3c(n2)[nH]c2ccccc23)cc1
T/C [2]: 99 % of control | T/C [3]: 100 % of control | T/C [4]: 90 % of control

C=CCn1c(=O)n(C)c(=O)c2[nH]c(Cl)nc21
T/C (dose: 16.0 mg/kg/injection, schedule: Q01DX009 (ip), vehicle: Klucel (hydroxypropylcellulose) (HPC)): 108 % of control | T/C (dose: 32.0 mg/kg/injection, schedule: Q01DX009 (ip), vehicle: Klucel (hydroxypropylcellulose) (HPC)): 103 % of control | T/C (dose: 50.0 mg/kg/injection, schedule: Q01DX009 (ip), vehicle: Klucel (hydroxypropylcellulose) (HPC)): 110 % of control | T/C (dose: 64.0 mg/kg/injection, schedule: Q01DX009 (ip), vehicle: Klucel (hydroxypropylcellulose) (HPC)): 104 % of control | T/C (dose: 100.0 mg/kg/injection, schedule: Q01DX009 (ip), vehicle: Klucel (hydroxypropylcellulose) (HPC)): 112 % of control

CN(C)C(=O)CC(c1ccccc1)C(CO)c1ccccc1 (centres undefined)
T/C [13]: 88 % of control | T/C (dose: 50.0 mg/kg/injection, schedule: Q01DX001 (ip), vehicle: Klucel (hydroxypropylcellulose) (HPC)): 91 % of control | T/C (dose: 100.0 mg/kg/injection, schedule: Q01DX001 (ip), vehicle: Klucel (hydroxypropylcellulose) (HPC)): 89 % of control | T/C (dose: 200.0 mg/kg/injection, schedule: Q01DX001 (ip), vehicle: Klucel (hydroxypropylcellulose) (HPC)): 88 % of control

COC(=O)c1nc(N)nc(C(=O)OC)c1C(=O)c1ccc(OC)cc1
T/C [14]: 101 % of control | T/C [15]: 101 % of control

Cc1ccc(S(=O)(=O)N(CCCc2c(C)nc(N)[nH]c2=O)Cc2ccc([N+](=O)[O-])cc2)cc1
T/C [14]: 88 % of control | T/C [15]: 86 % of control | T/C (dose: 240.0 mg/kg/injection, schedule: Q01DX005 (ip), vehicle: Klucel (hydroxypropylcellulose) (HPC)): 87 % of control

CCCCCCCCCCCCC(=O)CCCCC(=O)OC1OCC23OC2C2CC(C)(C)CC2C2(C)CC123 (centres undefined)
T/C (dose: 10.0 mg/kg/injection, schedule: Q01DX005 (ip), vehicle: olive oil, sesame oil, peanut oil): 105 % of control | T/C (dose: 20.0 mg/kg/injection, schedule: Q01DX005 (ip), vehicle: olive oil, sesame oil, peanut oil): 95 % of control | T/C (dose: 40.0 mg/kg/injection, schedule: Q01DX005 (ip), vehicle: olive oil, sesame oil, peanut oil): 101 % of control | T/C (dose: 80.0 mg/kg/injection, schedule: Q01DX005 (ip), vehicle: olive oil, sesame oil, peanut oil): 94 % of control
